Reference: US20080161255A1, “Use of Parp Inhibitors for Prevention and Treatment of Diabetic and Insulin Resistance Complications” (priority 2003, published 2008)
Blank lines part the entries; values can stand above or below the compound they belong to.

Columns and labels:
[1] = system: bovine aortic endothelial cells; assay: FFA-induced superoxide / reactive oxygen species generation in endothelial cells; assay type: cell-based; settings: FFA-treated endothelial cells
From the text: FIG. 8 is a graph of experimental data showing the effects of inhibitors of free fatty acid (FFA) oxidation (TDGA), UCP-1, and MnSOD on FFA-induced superoxide generation in bovine aortic endothelial cells.
Since mitochondrial β-oxidation of fatty acids yields the same electron donors as those obtained from glucose metabolism, that is, NADH and FADH2, we hypothesized that increased free fatty acid flux from adipose tissue to vascular endothelium would also increase mitochondrial production of superoxide.

[2] = biological target: T1, poly(ADP-ribose) polymerase (Bos taurus, UniProt P18493); assay: Poly(ADP-ribose) polymerase activity in aortic endothelial cells; assay type: cell-based, bovine; settings: aortic endothelial cells incubated with oleic acid at levels found in non-diabetic insulin resistance subjects
T1 construct: endogenous in cells; host or cells: bovine aortic endothelial cells
Method: Poly(ADP-ribose) polymerase activity. Cells were incubated for 5 min at 37° C. in assay buffer containing 125 nmol NAD^+ spiked with 0.25 μCi of ^3H-NAD^+ (Amersham) as described (12). Enzyme activity was determined by measuring cpm incorporated into protein.

prostacyclin synthetase = assay: Arterial prostacyclin synthetase activity in insulin resistant Fatty Zucker Rats; assay type: in vivo; settings: Fatty Zucker Rats treated for one week; untreated had only 1% of control Zucker rat activity
From the text: In order to examine whether this phenomenon was present in vivo, and thus had direct clinical relevance, we studied an accepted model of non-diabetic insulin resistance, the Fatty Zucker Rat. In these rats, we examined the activity of the endothelial cell surface enzyme prostacyclin synthetase, which produces a major anti-atherosclerotic product, prostacyclin. This enzyme is known to be directly inactivated by reactive oxygen species.

[3] = system: intracellular AGE formation; assay: Intracellular advanced glycation endproduct formation (quantitative immunoblotting); assay type: cell-based, bovine; settings: 30 mM glucose plus PJ34
Method: (§1) Cell culture conditions. Confluent bovine aortic endothelial cells (passage 4-10) were maintained in Eagle's MEM containing 0.4% FBS, essential and non-essential amino acid and antibiotics. Cells were incubated for 3 days prior to determination of PKC activity, 48 hr prior to determination of hexosamine pathway activity, for 5 days prior to determination of advanced glycation end product formation, and for 6 hr prior to determination of NFκB activation. Cells were infected with adenoviruses 48 hr prior to addition of 30 mM glucose.
Advanced glycation endproducts. Equal amounts of cell extract protein were used for quantitative immunoblotting performed as described (14). Methylglyoxal-derived imidazole advanced glycation endproducts were detected using monoclonal antibody 1H7G5 (identified above as IG7) at a 1:10,000 dilution. Immunocomplexes were visualized using an ECF kit according to the manufacturer's instructions (Amersham International, Piscataway, N.J.) and quantified using a Molecular Dynamics FluorImager and its ImageQuant 4.0 analytical software.

protein kinase C = assay: Protein kinase C activity (membrane fraction) in bovine aortic endothelial cells; assay type: cell-based; settings: 30 mM glucose plus PJ34
Method: as §1
Protein kinase C activity. The assay was performed according to the manufacturer's instructions using the Protein Kinase C Assay System (Invitrogen, Carlsbad, Calif.).

GAPDH [4] = assay: GAPDH activity in bovine aortic endothelial cells; assay type: cell-based; settings: 30 mM glucose; adenoviral overexpression or 3 mM PJ34
Method: Cell culture conditions. Confluent bovine aortic endothelial cells (passage 4-10) were maintained in Eagle's MEM containing 0.4% FBS, essential and non-essential amino acid and antibiotics. […] Cells were infected with adenoviruses 48 hr prior to addition of 30 mM glucose. Oligonucleotide synthesis and treatment of cells. […] The S-antisense GAPDH had the following sequence: [NT]. Scrambled oligonucleotides ([NT]) were used as controls. Oligo solutions were prepared in 10 mM TRIS buffer, pH 7.4, containing 1 mM EDTA NaCl. […], and the solution was added to the cells for 2 hr. GAPDH activity. BAECs were grown to confluency, harvested by using trypsin-EDTA after washing twice with PBS, and resuspended in lysis buffer. […] Protein was measured by using the Bio-Rad Coomassie Plus Protein Assay System. GAPDH activity was determined as described previously (Garcia et al., 2001; Tau et al., 1994).

hexosamine pathway = assay: Hexosamine pathway activity (UDP-GlcNAc concentration by HPLC); assay type: cell-based, bovine; settings: 30 mM glucose plus PJ34
Method: as §1
Hexosamine pathway activity. Hexosamine pathway activity was assessed by measuring UDP-GlcNAc concentration. Cells were homogenized in three volumes (600 μl) of cold 0.6 M perchloric acid and kept at 0° C. for 10 min. The precipitated proteins were removed by centrifugation for 5 min at 13,500×g, and UDP-GlcNAc in the supernatant was determined by HPLC as previously described (13).

NFκB = NFκB activation (fluorescence in situ DNA-protein binding assay); assay type: cell-based, bovine; settings: 30 mM glucose plus PJ34
Method: as §1
NFκB activation. A fluorescence in situ DNA-protein binding assay was performed in cultured cells as described (Kurose et al., 1997), and fluorescence per cell was determined using IP Lab Spectrum (Scanalytics, Fairfax, Va.).

GAPDH [5] = assay: Poly(ADP-ribosyl)ation of GAPDH (immunoprecipitation and western blotting); assay type: cell-based, bovine; settings: adenoviral overexpression or 3 mM PJ34
Method: Immunoprecipitation. BAECs were plated in 100 mm cell culture plates and grown to confluency. Cells (2×10^7) were scraped from the plates, and 500 μg of protein was immunoprecipitated with 4 μg of the indicated antibody and 20 μl of Protein A Sepharose 4B (Amersham Phamacia Biotech) in binding buffer (final concentration […]).
Western blotting. Immunoprecipitated proteins electrophoresed on 10% PAGE gels were transferred onto nitrocellulose membranes. The immunoblots were developed with 1:1000 dilutions of anti-poly(ADPribose) IgG, and the signal was detected with the ECL System according to the manufacturer's instructions (Amersham Pharmacia Biotech). The images were scanned into a Molecular Dynamics FluorImager and analyzed using the ImageQuant 5.5 program.

T1 sequence (P18493 whole entry): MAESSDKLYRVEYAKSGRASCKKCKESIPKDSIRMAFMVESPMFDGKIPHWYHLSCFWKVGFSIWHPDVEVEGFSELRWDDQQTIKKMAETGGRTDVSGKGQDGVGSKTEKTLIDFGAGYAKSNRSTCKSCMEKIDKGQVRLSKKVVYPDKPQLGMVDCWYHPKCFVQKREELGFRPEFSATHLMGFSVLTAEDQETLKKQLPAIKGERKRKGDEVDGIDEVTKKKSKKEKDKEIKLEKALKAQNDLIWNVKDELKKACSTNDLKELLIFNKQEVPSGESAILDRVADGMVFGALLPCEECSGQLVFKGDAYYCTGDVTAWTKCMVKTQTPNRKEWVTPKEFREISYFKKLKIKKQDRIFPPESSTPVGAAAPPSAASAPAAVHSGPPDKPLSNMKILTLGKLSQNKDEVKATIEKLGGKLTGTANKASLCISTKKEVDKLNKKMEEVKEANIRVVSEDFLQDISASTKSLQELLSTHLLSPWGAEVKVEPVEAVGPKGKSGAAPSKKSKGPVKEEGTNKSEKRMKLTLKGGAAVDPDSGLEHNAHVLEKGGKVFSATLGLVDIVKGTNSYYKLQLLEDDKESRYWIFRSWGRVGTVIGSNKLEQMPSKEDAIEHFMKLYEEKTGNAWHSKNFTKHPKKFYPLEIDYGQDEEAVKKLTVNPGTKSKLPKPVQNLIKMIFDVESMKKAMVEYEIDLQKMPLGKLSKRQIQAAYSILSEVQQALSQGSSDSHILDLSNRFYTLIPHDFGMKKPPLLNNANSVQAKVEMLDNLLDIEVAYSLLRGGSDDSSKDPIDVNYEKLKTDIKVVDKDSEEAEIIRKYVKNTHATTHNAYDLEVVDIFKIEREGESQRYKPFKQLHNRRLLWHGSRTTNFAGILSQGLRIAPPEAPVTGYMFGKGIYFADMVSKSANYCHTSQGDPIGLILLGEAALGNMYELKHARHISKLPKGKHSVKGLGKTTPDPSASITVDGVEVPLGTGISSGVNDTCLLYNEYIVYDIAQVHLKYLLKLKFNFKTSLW

SMILES: CCCCCCCCCCCCCCC1(C(=O)O)CO1 (stereo not shown) [TDGA]
ability of FFAs to induce reactive oxygen species in endothelial cells [1]: inhibited

SMILES: CCCCCCCC/C=C\CCCCCCCC(=O)O [oleic acid]
increase of PARP activation [2]: 1.5 fold

SMILES: O=C(O)c1ccc(-c2c3nc(c(-c4ccc(C(=O)O)cc4)c4ccc([n-]4)c(-c4ccc(C(=O)O)cc4)c4nc(c(-c5ccc(C(=O)O)cc5)c5ccc2[n-]5)C=C4)C=C3)cc1.[Mn+3] [MnTBAP, Manganese (III) tetrakis(4-benzoic acid) porphyrin]
activity of prostacyclin synthetase in aortas (prostacyclin synthetase): restored to supranormal levels

effect of 30 mM glucose on NFκB activation (NFκB): completely prevented
SMILES: CN(C)CC(=O)Nc1ccc2[nH]c(=O)c3ccccc3c2c1 [PJ34, N-(oxo-5,6-dihdrophenanthridin-2-yl)-N,N-dimethylacetamide]
effect of 30 mM glucose on intracellular AGE formation [3]: completely prevented
activation of PKC by 30 mM glucose (protein kinase C): completely prevented
hyperglycemia-induced inhibition of GAPDH activity (GAPDH [4]): prevention
effect of 30 mM glucose on UDP-N-acetylglucosamine concentration (hexosamine pathway) (hexosamine pathway): completely prevented
poly(ADP-ribosyl)ation of GAPDH induced by 30 mM glucose (GAPDH [5]): completely prevented

SMILES: O=C(O)c1cccnc1 [nicotinic acid]
activity of prostacyclin synthetase in aortas (prostacyclin synthetase): restored to normal levels
